Reference: patent publication US12023390B2, “Isomerically pure 18F-labelled tetrahydrofolates” (MERCK PATENT GMBH, priority 2017, dated 2024)

How the values were obtained:
[1] = Distribution coefficient (log D7.4), shake flask method; format: physicochemical; conditions: n-octanol / phosphate buffer pH 7.4, room temperature
Procedure: The samples were shaken for 15 min in an overhead shaker and centrifuged for 3 min at 5000 rpm to separate the two phases. Aliquots (50 μL) of both phases were added to Eppendorftubes and then, analyzed in a γ-counter (Wizard, PerkinElmer). The partition coefficient is expressed as the radio between the radioactivity concentrations (cpm/mL) of the n-octanol and the phosphate buffer phase. Values represent the mean±standard deviation of sextuples from two independent experiments.

[2] = test system: FR-positive KB cells; assay: Cell uptake and internalization using FR-positive KB cells; format: cell-based
Procedure: (§1) In order to investigate FR-specific cell uptake and internalization, cell uptake and internalization of 6R-[^18F]1 and 6S-[^18F]1 were carried out using FR-positive KB cells. Cell uptake increased constantly over time for both diastereoisomers resulting in an uptake of about 60% (calculated per 0.3 mg of protein) of total added radioactivity after 3 h of incubation at 37° C. (FIG. 22).

[3] = Metabolite studies / in vivo stability (radio-UPLC of blood plasma, liver, urine); parameters: species or system mice; conditions: samples taken p.i.
Procedure: as §1
The folate radiotracer 6S/6R-[^18F]5 (1:1 ratio, 53.7-52.3 MBq; 0.62-1.15 nmol) were intravenously injected into mice in order to determine the in vivo stability of the tracers. […] Ice-cold methanol containing 10 mg/mL 2-mercaptoethanol and 0.025% (v/v) ammonium hydroxide was added to the blood plasma, homogenized liver and urine in order to precipitate the proteins.^6 After centrifugation, the supernatants of the blood plasma, liver and urine samples were analyzed by radio-UPLC (FIG. 4).

[4] = target: T1, RT16 (FR-α) (Homo sapiens, UniProt P15328); assay: Cell uptake and internalization in FR-α transfected CHO cells (RT16); format: cell-based
T1 construct: expressed in transfected cells; host or cells: CHO cells (RT16)
T1 sequence (P15328 25-234): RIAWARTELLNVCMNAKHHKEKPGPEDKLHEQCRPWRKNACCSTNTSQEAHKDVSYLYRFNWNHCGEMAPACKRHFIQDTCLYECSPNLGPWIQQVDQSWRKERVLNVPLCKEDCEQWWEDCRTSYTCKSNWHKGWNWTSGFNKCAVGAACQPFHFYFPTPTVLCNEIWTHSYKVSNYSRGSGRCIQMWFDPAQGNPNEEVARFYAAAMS
Procedure: (§2) The uptake and internalization of the oxidized (^18F-AzaFol) and reduced ^18F-folates (6S-isomer and 6R-isomer of ^18F-5-Me-Aza-THF) in D4 and RT16 cells which express the FR-α and FR-β, […] was studied. Both cell lines were kindly provided by Larry Matherly Wayne State University, Detroit, U.S.; Golani et al., J Med Chem, 2016, 59, 7856.
The internalized fraction of the radiotracers reached 8-10% after 1 h and increased slightly up to 9-12% after 3 h incubation.

[5] = target: T2, D4 (FR-β) (Homo sapiens, UniProt P14207); assay: Cell uptake and internalization in FR-β transfected CHO cells (D4); format: cell-based
T2 construct: expressed in transfected cells; host or cells: CHO cells (D4)
T2 sequence (P14207 17-230): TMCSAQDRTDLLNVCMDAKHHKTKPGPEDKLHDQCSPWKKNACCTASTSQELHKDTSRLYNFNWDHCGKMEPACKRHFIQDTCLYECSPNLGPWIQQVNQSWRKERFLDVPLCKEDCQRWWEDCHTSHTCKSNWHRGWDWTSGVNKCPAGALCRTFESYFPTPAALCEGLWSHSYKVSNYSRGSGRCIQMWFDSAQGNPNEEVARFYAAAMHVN
Procedure: as §2
When using D4 cells that express the FR-β, the uptake of ^18F-AzaFol and the 6S-isomer of the reduced radiotracer reached approximately 70% after 1 h incubation and 80% after 3 h incubation. The internalized fraction of ^18F-AzaFol and the 6S-isomer of the reduced version was 20% and 12%, respectively, after 1 h incubation. These numbers increased slightly when the incubation time was extended to 3 h. […] No change was observed after additional two hours of incubation.

[6] = test system: KB tumor xenografts
[7] = test system: KB tumor-bearing mice; assay: Biodistribution studies in KB tumor-bearing mice
Procedure: Biodistribution studies were performed 2 weeks after cell inoculation. The ^18F-folate radiotracers (˜5 MBq/mouse) were injected in a volume of 100 μL into a lateral tail vein. The animals were sacrificed at 30 min, 60 min and 90 min after administration of radiotracers. Selected tissues and organs were collected, weighed, and radioactivity was measured using a γ-counter. The results were listed as a percentage of the injected radioactivity per gram of tissue mass (% IA/g), using counts of a defined volume of the original injection solution measured at the same time resulting in decay corrected values.

[8] = KB tumor-bearing mice, 30 min p.i.
[9] = KB tumor-bearing mice, 30 min p.i., ratio
[10] = KB tumor-bearing mice, 60 min p.i.
[11] = KB tumor-bearing mice, 60 min p.i. & Folic Acid (100 μg 10 min prior)
[12] = KB tumor-bearing mice, 60 min p.i., ratio
[13] = KB tumor-bearing mice, 90 min p.i.
[14] = KB tumor-bearing mice, 90 min p.i., ratio
[15] = KB tumor-bearing mice, 90 min p.i., listed as 6R-form
[16] = KB tumor-bearing mice, 90 min p.i., listed as 6R-isomer

Substance: 6R-3′-aza-2′-[^18F]fluoro-5-MTHF [6R-[^18F]1]
- logD7.4 [1]: −4.6 ± 0.1
- internalized activity ([2]; 37° C.): around 8%
- cell uptake (% of total added radioactivity) ([2]; 3 h incubation at 37° C., calculated per 0.3 mg of protein): about 60%
- in vivo stability [3]: Only intact parent compounds were found
- uptake into RT16 cells (in words) [4]: higher uptake
- uptake into D4 cells (in words) ([5]; D4 (FR-β) cells): very low
- internalized fraction ([5]; D4 cells, 1 h incubation): about 1%
- uptake ([5]; D4 cells, 1 h incubation): 3%
- PET/CT: KB tumor xenograft uptake ([6]; already 1 h p.i.): High KB tumor xenograft uptake
- PET/CT: blocking studies, uptake in all FR-positive tissues ([6]; folic acid injected 10 minutes prior to radiotracer): remarkably reduced uptake
- Biodistribution: Blood [7, 8]: 3.13 ± 0.31 % IA/g
- Biodistribution: Bone [7, 8]: 2.73 ± 0.14 % IA/g
- Biodistribution: Feaces [7, 8]: 12.2 ± 3.54 % IA/g
- Biodistribution: Gall Bladder [7, 8]: 37.5 ± 11.7 % IA/g
- Biodistribution: Heart [7, 8]: 2.75 ± 0.33 % IA/g
- Biodistribution: Intestines [7, 8]: 7.68 ± 1.28 % IA/g
- Biodistribution: KB Tumor [7, 8]: 13.3±1.80 % IA/g
- Biodistribution: Kidneys [7, 8]: 34.5 ± 2.45 % IA/g
- Biodistribution: Liver [7, 8]: 14.3 ± 1.36 % IA/g
- Biodistribution: Lung [7, 8]: 3.37 ± 0.32 % IA/g
- Biodistribution: Muscle [7, 8]: 1.54 ± 0.13 % IA/g
- Biodistribution: Salivary glands [7, 8]: 7.16 ± 0.51 % IA/g
- Biodistribution: Spleen [7, 8]: 8.25 ± 0.96 % IA/g
- Biodistribution: Stomach [7, 8]: 2.20 ± 0.23 % IA/g
- Tu-to-blood [7, 9]: 4.27 ± 0.61
- Tu-to-liver [7, 9]: 0.94 ± 0.14
- Biodistribution: Kidneys ([7]; KB tumor-bearing mice, 30 min p.i., listed as 6R-form): 34.5±2.45 % IA/g
- Biodistribution: Liver ([7]; KB tumor-bearing mice, 30 min p.i., listed as 6R-tracer): 14.3±1.36 % IA/g
- Biodistribution: Blood [7, 10]: 2.16 ± 0.25 % IA/g
- Biodistribution: Bone [7, 10]: 2.43 ± 0.10 % IA/g
- Biodistribution: Feaces [7, 10]: 17.8 ± 5.09 % IA/g
- Biodistribution: Gall Bladder [7, 10]: 39.0 ± 22.17 % IA/g
- Biodistribution: Heart [7, 10]: 2.38 ± 0.18 % IA/g
- Biodistribution: Intestines [7, 10]: 6.93 ± 1.06 % IA/g
- Biodistribution: KB Tumor [7, 10]: 18.1 ± 2.86 % IA/g
- Biodistribution: Kidneys [7, 10]: 27.3 ± 3.07 % IA/g
- Biodistribution: Liver [7, 10]: 14.1 ± 0.80 % IA/g
- Biodistribution: Lung [7, 10]: 2.80 ± 0.29 % IA/g
- Biodistribution: Muscle [7, 10]: 1.36 ± 0.15 % IA/g
- Biodistribution: Salivary glands [7, 10]: 6.49 ± 0.93 % IA/g
- Biodistribution: Spleen [7, 10]: 8.25 ± 0.88 % IA/g
- Biodistribution: Stomach [7, 10]: 2.35 ± 0.49 % IA/g
- Biodistribution: Blood [7, 11]: 1.52 ± 0.43 % IA/g
- Biodistribution: Bone [7, 11]: 1.51 ± 0.34 % IA/g
- Biodistribution: Feaces [7, 11]: 15.2 ± 1.75 % IA/g
- Biodistribution: Gall Bladder [7, 11]: 26.5 ± 16.6 % IA/g
- Biodistribution: Heart [7, 11]: 1.60 ± 0.46 % IA/g
- Biodistribution: Intestines [7, 11]: 5.23 ± 0.73 % IA/g
- Biodistribution: KB Tumor [7, 11]: 3.41 ± 0.88 % IA/g
- Biodistribution: Kidneys [7, 11]: 4.80 ± 1.94 % IA/g
- Biodistribution: Liver [7, 11]: 9.64 ± 1.55 % IA/g
- Biodistribution: Lung [7, 11]: 1.73 ± 0.43 % IA/g
- Biodistribution: Muscle [7, 11]: 1.05 ± 0.42 % IA/g
- Biodistribution: Salivary glands [7, 11]: 2.61 ± 0.70 % IA/g
- Biodistribution: Spleen [7, 11]: 3.89 ± 0.40 % IA/g
- Biodistribution: Stomach [7, 11]: 2.02 ± 0.52 % IA/g
- Tu-to-blood [7, 12]: 8.47 ± 1.62
- Tu-to-kidney [7, 12]: 0.67 ± 0.14
- Tu-to-liver [7, 12]: 1.29 ± 0.18
- Biodistribution: Blood [7, 13]: 1.92 ± 0.19 % IA/g
- Biodistribution: Bone [7, 13]: 3.53 ± 0.90 % IA/g
- Biodistribution: Feaces [7, 13]: 13.1 ± 6.07 % IA/g
- Biodistribution: Gall Bladder [7, 13]: 56.7 ± 13.2 % IA/g
- Biodistribution: Heart [7, 13]: 2.39 ± 0.47 % IA/g
- Biodistribution: Intestines [7, 13]: 8.01 ± 2.72 % IA/g
- Biodistribution: KB Tumor [7, 13]: 23.9 ± 2.74 % IA/g
- Biodistribution: Kidneys [7, 13]: 29.8 ± 7.46 % IA/g
- Biodistribution: Liver [7, 13]: 16.8 ± 3.58 % IA/g
- Biodistribution: Lung [7, 13]: 2.92 ± 0.53 % IA/g
- Biodistribution: Muscle [7, 13]: 1.48 ± 0.31 % IA/g
- Biodistribution: Salivary glands [7, 13]: 7.31 ± 1.17 % IA/g
- Biodistribution: Spleen [7, 13]: 13.0 ± 4.14 % IA/g
- Biodistribution: Stomach [7, 13]: 2.51 ± 0.42 % IA/g
- Tu-to-blood [7, 14]: 12.5 ± 1.46
- Tu-to-liver [7, 14]: 1.46 ± 0.26
- Biodistribution: Kidneys [7, 15]: 29.8±7.46 % IA/g
- Biodistribution: Liver [7, 15]: 16.8±3.58 % IA/g
- Biodistribution: Salivary glands [7, 15]: 7.31±1.17 % IA/g
- Biodistribution: KB Tumor [7, 16]: 23.9±2.74 % IA/g
- Biodistribution: Liver [7, 16]: 16.8±3.58 % IA/g
- Biodistribution: Spleen [7, 16]: 13.0±4.14 % IA/g
- Specificity of tumor binding ([7]; blocking by pre-injection of folic acid): 85%
- factor of increase of tumor-to-kidney ratio ([7]; from 30 min p.i. to 90 min p.i.): 2.1
